Assay results from PubChem BioAssay AID1963444 (Molecular Pharmacology Branch, DTP, NCI, 2024).

System: HSSY-II complex spheroid growth, percent test/control
Test: Anticancer human tumor HSSY-II cell line growth inhibition [Asc];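 also: spheroids exposed to drug for 7 days before reading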
Conditions: for IC50: curve of first compound; for viability, T/C: stronger effect = lower value
Procedure: Multicellular complex tumor spheroid response to apoptosis pathway targeting inhibitors Alrizomadlin, Pelcitoclax, and Dasminapant in combination with a variety of drugs and investigational agents in selected tumor cell lines
The MDM2 inhibitor alrizomadlin, the Bcl-2/Bcl-xL inhibitor pelcitoclax, and the IAPs inhibitor dasminapant were evaluated both individually and in combination with standard of care and investigational anticancer small molecules within a complex spheroid model of solid tumors. . Complex spheroids include a stromal component modeled by human endothelial cells (HUVEC) and fibroblasts modeled by human mesenchymal stem cells (MSCs). The concentration ranges selected for each drug and investigational agent were based upon clinically achievable concentrations if the clinical Cmax of the agent was known.
Compounds. The drugs and investigational agents: alrizomadlin (APG-115; NSC831270), pelcitoclax (APG-1252; NSC835773), dasminapant (APG-1387;NSC834197), TAK-243 (NSC785004), copanlisib (NSC809693), olaparib (NSC753686), talazoparib (NSC767125), cobimetinib (NSC 768068), eltanexor (KPT-8602, NSC 794443), abemaciclib (NSC 768073), sotorasib (NSC818433), adagrasib (NSC 831453), MRTX-1133 (NSC 836407), Iadademestat (ORY1001, NSC 806812), and RMC-4630 (NSC839698), were obtained from the NCI Developmental Therapeutics Program Chemical Repository. The FDA-approved anticancer drug set is available from the Developmental Therapeutics Program at https://dtp.cancer.gov/organization/dscb/obtaining/available plates.htm. […] The stock solutions were prepared in dimethyl sulfoxide (DMSO, Sigma-Aldrich, St. Louis, MO, cat. D2650) at 800-fold the tested concentration and stored at -70 degrees C prior to their use. All drugs and investigational agents were tested over a range starting from a high concentration at or near the clinical Cmax and decreasing in half-log increments. If the clinical Cmax for an agent had not been determined, the highest concentration tested was 10 microM.
The patient-derived cancer (PDC) cell lines include five colon adenocarcinomas: 186277-243-T-J2-PDC, 616215-338-R-J1-PDC, 439559-082-T-J2-PDC, 463943-066-T-J2-PDC, and 519858-162-T-J1-PDC; three pancreatic carcinomas: 323965-272-R-J2-PDC, 521955-158-R6-J3-PDC, and 521955-158-R2-J5-PDC; two uterine sarcomas: 327498-152-R-J2-PDC and 993429-296-R-J1-PDC; two rhabdomyosarcomas: 755483-174-R-J1-PDC and 772245-204-R-J1-PDC; two soft tissue sarcomas: 126254-015-R-J1-PDC and 494315-158-R-J1-PDC; two malignant fibrous histiocytomas: 317291-083-R-J1-PDC and 596521-263-R-J1-PDC; two breast carcinomas: 171881-019-R-J1-PDC and 885512-296-R-J2-PDC; and one ovarian carcinoma: 6556581-035-R-J-PDC were obtained from the NCI PDMR, (https://pdmr.cancer.gov). The established cell lines HSSY-2 synovial sarcoma (RRID:CVCL 8719), SYO-1 synovial sarcoma (RRID:CVCL_7146), MPNST malignant peripheral neural sheath tumor were obtained from the Sloan Kettering Institute. The following established cell lines were purchased from the American Type Culture Collection (ATCC, Manassas, VA), Sor the received from the NCI repository:, PANC-1 pancreatic carcinoma (CRL-1469, RRID:CVCL_0480), OVCAR-5 ovarian carcinoma (RRID:CVCL_1628), OVCAR-8 ovarian carcinoma (RRID:CVCL_1629), , MCF-7 breast carcinoma (CRL-12584, RRID:CVCL_0031), MDA-MB-231 breast carcinoma (CRL-12532, RRID:CVCL_0062), NCI-H1876 small cell lung carcinoma (CRL-5902, RRID:CVCL_1503), NCI-H510A small cell lung carcinoma (HTB-184, RRID:CVCL_1565), NCI-H1417 (CRL-5869, RRID:CVCL_1469), and NCI-H196 small cell lung carcinoma (CRL-5823, RRID:CVCL_1509). Dr. Peter Houghton (Greehey Children's Cancer Research Institute, University of Texas Health Science Center, San Antonio, TX) provided Rh-18 rhabdomyosarcoma (RRID:CVCL_1659). Pooled donor human umbilical vein endothelial cells (HUVEC, Lonza, cat. CC-2519) and human mesenchymal stem cells (hMSC, Lonza, cat. PT-2501) were purchased from Lonza (Walkersville, MD).
Cell Culture. […]

[1] = second compound 0.03 µM, first compound 0.00316 µM
[2] = second compound 0.03 µM, first compound 0.01 µM
[3] = second compound 0.03 µM, first compound 0.0316 µM
[4] = second compound 0.03 µM, first compound 0.1 µM
[5] = second compound 0.0949 µM, first compound 0.00316 µM
[6] = second compound 0.0949 µM, first compound 0.01 µM
[7] = second compound 0.0949 µM, first compound 0.0316 µM
[8] = second compound 0.0949 µM, first compound 0.1 µM
[9] = second compound 0.3 µM, first compound 0.00316 µM
[10] = second compound 0.3 µM, first compound 0.01 µM
[11] = second compound 0.3 µM, first compound 0.0316 µM
[12] = second compound 0.3 µM, first compound 0.1 µM
[13] = second compound 0.949 µM, first compound 0.00316 µM
[14] = second compound 0.949 µM, first compound 0.01 µM
[15] = second compound 0.949 µM, first compound 0.0316 µM
[16] = second compound 0.949 µM, first compound 0.1 µM
[17] = second compound 3 µM, first compound 0.00316 µM
[18] = second compound 3 µM, first compound 0.01 µM
[19] = second compound 3 µM, first compound 0.0316 µM
[20] = second compound 3 µM, first compound 0.1 µM
[21] = second compound 0.03 µM, first compound 0.316 µM
[22] = second compound 0.03 µM, first compound 1 µM
[23] = second compound 0.0949 µM, first compound 0.316 µM
[24] = second compound 0.0949 µM, first compound 1 µM
[25] = second compound 0.3 µM, first compound 0.316 µM
[26] = second compound 0.3 µM, first compound 1 µM
[27] = second compound 0.949 µM, first compound 0.316 µM
[28] = second compound 0.949 µM, first compound 1 µM
[29] = second compound 3 µM, first compound 0.316 µM
[30] = second compound 3 µM, first compound 1 µM

IC50 (second compound 0.03 µM)	IC50 (second compound 0.0949 µM)	IC50 (second compound 0.3 µM)	IC50 (second compound 0.949 µM)	IC50 (second compound 3 µM)	Compound	viability, T/C [1]	viability, T/C [2]	viability, T/C [3]	viability, T/C [4]	viability, T/C [5]	viability, T/C [6]	viability, T/C [7]	viability, T/C [8]	viability, T/C [9]	viability, T/C [11]	viability, T/C [12]	viability, T/C [15]	viability, T/C [16]	viability, T/C [19]	viability, T/C [20]	further results
10.7 nM	2.01 nM	< 0.316 nM	< 0.316 nM	< 0.316 nM	Cn1ncnc1[C@H]1c2n[nH]c(=O)c3cc(F)cc(c23)N[C@@H]1c1ccc(F)cc1 + CCN1C(C(=O)NC23CCC(C(=O)O)(CC2)CC3)C(c2cccc(Cl)c2F)C2(C(=O)Nc3cc(Cl)ccc32)C12CCCCC2	68.1%	52.8%	31.4%	19.6%	47.1%	31%	15.4%	10.2%	18.2%	6.69%	5.88%	6.11%	6.09%	1.88%	4.41%	viability, T/C (second compound 0.03 µM, first compound 0.000316 µM): 91.9%; viability, T/C (second compound 0.03 µM, first compound 0.001 µM): 89.6%; viability, T/C (second compound 0.0949 µM, first compound 0.000316 µM): 61.4%; viability, T/C (second compound 0.0949 µM, first compound 0.001 µM): 53.6%; viability, T/C (second compound 0.3 µM, first compound 0.000316 µM): 28.5%; viability, T/C (second compound 0.3 µM, first compound 0.001 µM): 28.6%; viability, T/C [10]: 10.4%; viability, T/C (second compound 0.949 µM, first compound 0.000316 µM): 8.57%; viability, T/C (second compound 0.949 µM, first compound 0.001 µM): 7.9%; viability, T/C [13]: 7.26%; viability, T/C [14]: 5.4%; viability, T/C (second compound 3 µM, first compound 0.000316 µM): 2.41%; viability, T/C (second compound 3 µM, first compound 0.001 µM): 2.9%; viability, T/C [17]: 4.02%; viability, T/C [18]: 2.59%
1760 nM	196 nM	< 31.6 nM	< 31.6 nM	< 31.6 nM	O=C(c1cc(Cc2n[nH]c(=O)c3ccccc23)ccc1F)N1CCN(C(=O)C2CC2)CC1 + CCN1C(C(=O)NC23CCC(C(=O)O)(CC2)CC3)C(c2cccc(Cl)c2F)C2(C(=O)Nc3cc(Cl)ccc32)C12CCCCC2			81.5%	75.1%			52.9%	52.4%		23.5%	20.9%	6.91%	7.91%	3.25%	2.79%	viability, T/C [21]: 84.5%; viability, T/C [22]: 63.6%; viability, T/C (second compound 0.03 µM, first compound 3.16 µM): 34.5%; viability, T/C (second compound 0.03 µM, first compound 10 µM): 14.1%; viability, T/C [23]: 47.2%; viability, T/C [24]: 38.5%; viability, T/C (second compound 0.0949 µM, first compound 3.16 µM): 18.7%; viability, T/C (second compound 0.0949 µM, first compound 10 µM): 9.39%; viability, T/C [25]: 18.3%; viability, T/C [26]: 15.5%; viability, T/C (second compound 0.3 µM, first compound 3.16 µM): 9.8%; viability, T/C (second compound 0.3 µM, first compound 10 µM): 6.14%; viability, T/C [27]: 6.69%; viability, T/C [28]: 7.17%; viability, T/C (second compound 0.949 µM, first compound 3.16 µM): 6.79%; viability, T/C (second compound 0.949 µM, first compound 10 µM): 5.66%; viability, T/C [29]: 3.26%; viability, T/C [30]: 2.73%; viability, T/C (second compound 3 µM, first compound 3.16 µM): 2.56%; viability, T/C (second compound 3 µM, first compound 10 µM): 3.28%
485 nM	186 nM	< 3.16 nM	< 3.16 nM	< 3.16 nM	O=C(c1ccc(F)c(F)c1Nc1ccc(I)cc1F)N1CC(O)([C@@H]2CCCCN2)C1 + CCN1C(C(=O)NC23CCC(C(=O)O)(CC2)CC3)C(c2cccc(Cl)c2F)C2(C(=O)Nc3cc(Cl)ccc32)C12CCCCC2	101%	96.6%	77.7%	98.5%	66.7%	70.8%	67.9%	59.9%	30.3%	34.2%	28.1%	7.24%	6.73%	2.09%	2.02%	viability, T/C [21]: 66.7%; viability, T/C [22]: 21.7%; viability, T/C [23]: 41.2%; viability, T/C [24]: 15.8%; viability, T/C [10]: 25.7%; viability, T/C [25]: 24.2%; viability, T/C [26]: 7.55%; viability, T/C [13]: 6.94%; viability, T/C [14]: 9.74%; viability, T/C [27]: 5.75%; viability, T/C [28]: 2.34%; viability, T/C [17]: 2.22%; viability, T/C [18]: 2.17%; viability, T/C [29]: 1.16%; viability, T/C [30]: 0.62%
